“And” between values parts separate entries of the source, which are not always exact repeats. Equal values may be shown once. “Also recorded” adds a separate entry of the source.
Tests used:
[1] = biological target: T1, Mcl-1 protein (Homo sapiens, UniProt Q07820); experiment: SPR-based solution competitive binding assay, immobilized biotin-labelled Bim BH3 peptide; conditions: Mcl-1 20 nM; competition with immobilized Bim BH3 peptide
T1 construct: human Mcl-1 (residues 171–323); His tag (pHis-TEV vector) (N, cleaved yes); made in house; host or cells: E. coli BL21 (DE3)
Description: The solution competitive SPR-based assay was performed on Biacore 2000 in a similar way as was already reported. Briefly, N terminal biotin-labelled Bim BH3 peptide (141–166 amino acids) was immobilized on streptavidin (SA) chip giving a density of 800 RU (Response Units). The pre-incubated Mcl-1 protein (20 nM) with tested small-molecule inhibitors for at least 30 min was injected over the surfaces of the chip using assay buffer HBS-P (GE, #BR100368). Response units were measured at 15 s in the dissociation phase, and IC50 values were determined by nonlinear least-squares analysis using GraphPad Prism 6.0 software.

[2] = biological target: T2, Bcl-xL (Homo sapiens, UniProt Q07817, DEL45-85); experiment: FP-based competitive binding assay with FAM-Bid; conditions: for IC50 / Ki: FP
T2 construct: His tag (pHis-TEV vector) (N, cleaved yes); made in house; host or cells: E. coli BL21 (DE3)

[3] = biological target: T3, Bcl-2 (Homo sapiens, UniProt P10415, DEL35-91/INS34DVEENRTEAPEGTESE); experiment: FP-based competitive binding assay with FAM-Bid; conditions: FP
T3 construct: His tag (pHis-TEV vector) (N, cleaved yes); made in house; host or cells: E. coli BL21 (DE3)

[4] = tested on: wild-type MEFs; experiment: MEF cell death, propidium iodide flow cytometry; type: cell-based, mouse
Description: (§1) MEF cells, including wild-type, Bax/Bak double knockout, Bax−/− single knockout, and Bak−/− single knockout were tested and characterized (Supplementary Fig. S3). The cells were cultured in DMEM (Life Technologies), supplemented with 10% fetal bovine serum (FBS) (Thermo Scientific HyClone) and 1% Penicillin/streptomycin solution (Life Technologies). The retrovirally transduced lymphoma cells isolated from Eμ-myc transgenic mice were provided by Ricky W. Johnstone at the University of Melbourne, Melbourne, Australia and cultured as previously described[37],[65].
(§2) MEFs were seeded in 24-well plates at 0.5 × 10^5 cells/well, left to adhere for 5 hours and then treated for 15 hours with increasing concentrations of the compounds. The cells were harvested, washed with phosphate-buffered saline (PBS) and stained with 0.025 mg/ml propidium iodide (MP Biomedicals). The percentage of the propidium iodide positive population was determined by flow cytometry and calculated using WinList 3.0.

[5] = tested on: Bax/Bak double knockout (DKO) MEFs; experiment: MEF cell death, propidium iodide flow cytometry; type: cell-based, mouse
Description: as §1, §2

[6] = biological target: T4, endogenous Mcl-1 (Homo sapiens, UniProt Q07820); experiment: Biotin-streptavidin pulldown with BL-Noxa, 2LMP whole cell lysate; type: binding
T4 construct: endogenous in cells; host or cells: 2LMP (subclone of MDA-MB-231), whole cell lysate
Description: 2LMP cells, a subclone of MDA-MB-231, were harvested (~15 × 10^6) and lysed via sonication with CHAPS buffer (10 mM HEPES pH 7.4, 2.5 mM EDTA, 150 mM NaCl, 1% (w/v) CHAPS, pH 7.4). […] Protein-peptide complexes were pulled down with agarose beads for 2 hrs. Beads were washed with CHAPS buffer and Mcl-1 protein was eluted by boiling in SDS-PAGE loading dye. Samples were analysed by western blotting with the Mcl-1 antibody (Thermo Scientific #MS-681-P1).

[7] = tested on: Eµ-myc lymphoma cells overexpressing Bcl-2; experiment: Eµ-myc lymphoma cell viability, flow cytometry; type: cell-based, mice; conditions: increasing concentrations
Description: as §1
(§3) The Mcl-1, Bcl-2, and Bcl-xL retroviral transduced lymphoma Eμ-myc cells were seeded in 12-well plates at 0.5 × 10^6 cells/well. […] The cells were harvested and stained with violet LIVE/DEAD Fixable Dead Cell Stain Kit (Invitrogen) according to manufacturer’s protocol. The percentage of fluorescent positive cells was determined by flow cytometry and calculated using WinList 3.0.

[8] = tested on: Eµ-myc lymphoma cells overexpressing Mcl-1; experiment: Eµ-myc lymphoma cell viability, flow cytometry; type: cell-based, mice; conditions: increasing concentrations, 15 h
Description: as §1, §3

[9] = tested on: Bcl-2; experiment: FP-based competitive binding assay with FAM-Bid; set-up: species or system human; conditions: ratio of Ki
[10] = 100 µM of hits (15: 10, 20, 30 µM), 15-hour treatment, propidium iodide
[11] = increasing concentrations, 15 h

T3 sequence (P10415 with tags, fused parts or gaps INS34DVEEN/V35R/G36T/A37E/P40E/DEL42-87/P88T/V89E/P90S/P91E): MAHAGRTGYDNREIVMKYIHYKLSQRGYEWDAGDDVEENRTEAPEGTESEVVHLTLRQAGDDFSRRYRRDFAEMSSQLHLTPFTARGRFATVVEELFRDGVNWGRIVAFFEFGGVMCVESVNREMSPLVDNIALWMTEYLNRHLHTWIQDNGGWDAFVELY
T2 sequence (Q07817 with tags, fused parts or gaps DEL45-85 limits assumed): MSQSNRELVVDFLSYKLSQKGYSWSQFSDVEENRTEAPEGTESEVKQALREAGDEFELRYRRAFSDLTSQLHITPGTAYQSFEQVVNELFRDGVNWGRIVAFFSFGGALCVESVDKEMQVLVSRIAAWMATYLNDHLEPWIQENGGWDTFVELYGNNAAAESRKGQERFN
T1 sequence (Q07820 171-323): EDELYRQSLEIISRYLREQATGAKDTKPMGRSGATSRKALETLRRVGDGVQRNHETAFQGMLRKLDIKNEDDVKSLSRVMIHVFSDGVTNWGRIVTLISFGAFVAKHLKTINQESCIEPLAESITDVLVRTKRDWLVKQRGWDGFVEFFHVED
T4 sequence (Q07820 whole entry): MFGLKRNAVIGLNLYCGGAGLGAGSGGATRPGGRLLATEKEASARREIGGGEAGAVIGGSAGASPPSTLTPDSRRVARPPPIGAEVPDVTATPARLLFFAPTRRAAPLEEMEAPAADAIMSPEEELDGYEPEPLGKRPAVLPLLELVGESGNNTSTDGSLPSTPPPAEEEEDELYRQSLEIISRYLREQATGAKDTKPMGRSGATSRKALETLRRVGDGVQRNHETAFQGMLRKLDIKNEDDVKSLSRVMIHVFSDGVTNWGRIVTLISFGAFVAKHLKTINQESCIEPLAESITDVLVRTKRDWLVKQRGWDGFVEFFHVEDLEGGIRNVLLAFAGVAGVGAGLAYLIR

| Compound | IC50 [1] | IC50 [2] [µM] | Ki [2] [µM] | IC50 [3] [µM] | Ki [3] [µM] | cell death induction in wild-type MEFs, screening of hits [4, 10] | cell death induction in Bax/Bak DKO MEFs, screening of hits [5, 10] | disruption of BL-Noxa binding to endogenous Mcl-1 [6] | effect on Eµ-myc cells overexpressing Bcl-2 [7] | killing of Eµ-myc cells overexpressing Mcl-1 [8] | fold lower binding affinity to Bcl-xL than to Mcl-1 ([2]; ratio of Ki) [fold] | fold lower binding affinity to Bcl-2 than to Mcl-1 [9] [fold] | cell death in wild-type MEFs [4, 11] | cell death in Bax/Bak DKO MEFs [5, 11] |
| --- | --- | --- | --- | --- | --- | --- | --- | --- | --- | --- | --- | --- | --- | --- |
| O=C(CSc1nnc(-c2ccco2)c(-c2ccco2)n1)Nc1ccccc1 [Compound 19] | 13 µM and 13.4 µM | > 100 | > 20 | > 100 | > 25 | inducing cell death | without significant cell death induction | – | – | – | – | – | – | – |
| c1ccc(CCCCSc2nnc(-c3ccco3)c(-c3ccco3)n2)cc1 [Compound 44] | – | > 100 | > 20 | > 100 | > 25 | – | – | dose-dependent blocking | selectivity | killing | – | – | – | – |
| O=C(CSc1nnc(-c2ccco2)c(-c2ccco2)n1)Nc1cccc(C(F)(F)F)c1 [Compound 39] | 6.3 ± 0.6 µM | > 100 | > 20 | > 100 | > 25 | – | – | dose-dependent blocking | selectivity; also recorded: minimal effect | selective killing; also recorded: selectively kills Mcl-1 dependent cell lines | > 17 | > 20 | induces Bax/Bak-dependent cell death; also recorded: dose-dependent increase in cell death | rescued the cells |
